Results reported in patent US5789382A, “Retro-peptide fibroblast growth factor which blocks FGF receptor” (Georgetown University, priority 1993, dated 1998).
Ends that are not written are not given here.

How the values were obtained:
human rhabdomyosarcoma [1] = experiment: human rhabdomyosarcoma xenograft in athymic nude mice (FIG. 6); type: in vivo
Protocol: Animal studies with human rhabdomyosarcoma growing in athymic nude mice were carried out with the 15 mer peptide. Tumors were allowed to grow subcutaneously and peptide (25 mg/kg of body weight) dissolved in saline was injected for eight days daily intraperitoneally. After three weeks the tumor size in a control group treated only with saline solution was 26.6±6.8 mm^2. The tumor size in the peptide-treated animals was 5.4±1.6 mm^2. […] This is illustrated in FIG. 6.
(§1) Human tumor cells (1 million per mouse) were inoculated in 0.1 ml of saline solution into a mammary fat pad of each mouse. Each group of treatment consisted of 10 animals. One day after the inoculation of tumor cells the animals were treated with a single daily intraperitoneal injection of saline solution (control group) or with the 15-mer retropeptide dissolved in saline solution at a dose of 25 mg per kg body weight (peptide group) or 25 mg per kg body weight of pentosanpolysulfate (pentosan polysulfate group). The treatment with peptide was continued for 8 days due to a currently still limited supply of the peptide. The pentosanpolysulfate treatment was continued throughout the whole observation period.
(§2) The mean ± standard error tumor size is 26.6±6.8 mm^2 (control group) and […] (peptide group). This difference is highly significant (p<0.003) as tested by student's t-test.

human SW-13 cells = experiment: growth assay with human SW-13 cells (FIG. 2, FIG. 4); type: cell-based; conditions: for inhibition of SW-13 cell growth: amounts added as high as 1,000 μg/ml
Description: FIG. 2 illustrates the results of a growth assay conducted with both a peptide of the present invention (retro-peptide) and the antero-peptide sequence thereof.
FIG. 2 illustrates that both the antero-peptide and the retro-peptide are inhibitory in a growth assay with human SW-13 cells.
FIG. 4 illustrates the difference in effect on SW-13 cell growth between a 10-mer peptide sequence of the formula (SEQ ID NO:6): […]
As may be seen from FIG. 4, the 15-mer sequence has an inhibitive effect on SW-13 cell growth with increasing amount added in μg/ml. This effect becomes almost completely inhibiting in amounts added of about 100 μg/ml and greater.

human melanoma = experiment: growth inhibition of human melanoma; type: cell-based; conditions: same concentration as in the SW-13 assay
human rhabdomyosarcoma [2] = experiment: growth inhibition of human rhabdomyosarcoma (in vitro); type: cell-based; conditions: same concentration as in the SW-13 assay
normal human cells = experiment: FGF-stimulated growth of normal human cells; type: cell-based
SW-13 cells = experiment: FGF-stimulated colony formation of SW-13 cells (FIG. 3); type: cell-based, human
Description: FIG. 3 illustrates the competitive mechanism of FGF-dependent growth inhibition by a retro-peptide of the present invention.
(§3) FIG. 3 illustrates the competitive mechanism of FGF-dependent growth inhibition by the retro-peptide of the present invention. […] This clearly establishes the specificity of the FGF-receptor inhibition by the present retro-peptide.
In FIG. 3, "Co" refers to a control, while "A" refers to the antero-peptideand "R" refers to the retro-peptide.

breast cancer cells = experiment: growth of cell lines growing independently from FGF; type: cell-based; conditions: such as breast cancer cells
Description: as §3

[3] = tolerability in tumor-bearing mice; type: in vivo, athymic nude mice; conditions: 25 mg/kg daily i.p. for 8 days
Protocol: as §1, §2

water solubility = type: physicochemical
Protocol: The present retro-peptide is water-soluble and is administered by any route, especially intravenously, subcutaneously, intraperitonially, intramuscularly, orally and rectally. The peptide may be conveniently administered in dextrose 5% saline or in saline solution.

pentosanpolysulfate [reference compound]
action on tumor size (human rhabdomyosarcoma [1]; 25 mg/kg daily i.p. throughout the observation period, p<0.05): significant

RKLAVYWSSYKRSRY [retro-peptide, NH2 --RKLAV--YWSSY--KRSRY--COOH]
inhibition in growth assay with human SW-13 cells (human SW-13 cells; FIG. 2): inhibitory
potency in SW-13 growth assay relative to the antero-peptide (human SW-13 cells; FIG. 2, retro-peptide versus antero-peptide): much more potent
effectiveness against human melanoma (human melanoma): effective at the same concentration
effectiveness against human rhabdomyosarcoma (human rhabdomyosarcoma [2]): effective at the same concentration
FGF-stimulated growth of normal human cells (normal human cells): blocks FGF-stimulated growth
dose-response curve of FGF-stimulated colony formation of SW-13 cells (SW-13 cells; competitive mechanism): shifted to the right without affecting the maximum achieved
inhibition of cell lines growing independently from FGF (breast cancer cells): neither of the antero-peptide nor retro-peptide inhibit
mean ± standard error tumor size (human rhabdomyosarcoma [1]; after 24 days of observation, 25 mg/kg daily i.p. for 8 days, saline control 26.6±6.8, p<0.003): 5.0±1.6 mm^2
tumor size (human rhabdomyosarcoma [1]; after three weeks, 25 mg/kg daily i.p. for eight days, saline control 26.6±6.8, p<0.003): 5.4±1.6 mm^2
body weight and signs of illness [3]: did not lose weight or show any other signs of major illness
tolerability [3]: tolerated the peptide well
solubility in water (water solubility): water-soluble

NH2 --YRSRK--YSSWY-VALKR--CO2 H [15-mer sequence]
amount added at which inhibition of SW-13 cell growth becomes almost complete (human SW-13 cells; FIG. 4, about 100 μg/ml and greater): about 100 μg/ml

YRSRKYSSWYVALKR [antero-peptide, NH2 --YRSRK--YSSWY--VALKR--COOH, reference compound]
inhibition in growth assay with human SW-13 cells (human SW-13 cells; FIG. 2): inhibitory
potency in FGF-stimulated SW-13 colony formation relative to the retro-peptide (SW-13 cells; antero-peptide versus retro-peptide): significantly less potent
inhibition of cell lines growing independently from FGF (breast cancer cells): neither of the antero-peptide nor retro-peptide inhibit

NH2 --YRSRK--YSSWY-CO2 H [10-mer sequence, reference compound]
inhibition of SW-13 cell growth (human SW-13 cells; FIG. 4): essentially no such inhibition
inhibition of SW-13 cell growth (human SW-13 cells; FIG. 4, listed as 10-mer): loss of activity
